This is an account of results in PMC11636765, “Importance of Considering Fed-State Gastrointestinal Physiology in Predicting the Reabsorption of Enterohepatic Circulation of Drugs” (Pharmaceutical Research, 2024).

The nature of data set [1]: Estimation of effective permeability (Peff) in the human small intestine from Caco-2 Papp.
Text: The Papp for each compound was cited from previous reports [39, 40] or calculated using an equation [41] based on the reported partition coefficient [25, 42].
For data set [2] the following is noted: cited from earlier work.
Details of data set [3]: method as in earlier work. To be noted: cited from earlier work.
For data set [4] the following is noted: cited from earlier work. The source holds these as a separate data set.
The nature of data set [5]: Solubility test of drug substances in biorelevant media and free fraction calculation. The class given is physicochemical. Particulars: for Free fraction: fraction of drug not entrapped in micelles in FeSSIF-V2, Eq. (8), from FaSSIF-V2/FeSSIF-V2 solubility; for Solubilization by bile micelles: in vitro solubility in biorelevant media. The method, then:
(§1) Fasted State Simulated Gastric Fluid (FaSSGF) and Fasted State Simulated Intestinal Fluid version 2 (FaSSIF-V2) were used for dissolution tests and solubility tests. Fed State Simulated Intestinal Fluid version 2 (FeSSIF-V2) was used for solubility tests. These media contain sodium taurocholate as the bile acid. Their composition and preparation method have been previously reported and were prepared accordingly, except that FaSSGF was used without pepsin.
The excess amount of ezetimibe powder was added to 10 mL FaSSIF-V2 and FeSSIF-V2. Test tubes containing the drug substances in the biorelevant media were vigorously shaken at 37℃ ± 0.5℃ for 5 h. An approximately 5 mL sample was withdrawn using a plastic syringe, then filtered through a PVDF 0.45 µm filter. The filtrates (after discarding the first ca. 2 mL) were diluted with 50:50 v/v acetonitrile for analysis to prevent precipitation, except for that of ezetimibe tested in FeSSIF-V2. All solubility tests were conducted in triplicate.
TSKgel ODS-100Z 5 µm (4.6 mm × 15 cm, Tosoh Corporation, Tokyo, Japan) was used as analytical column for both drugs. Column temperature during analysis was set to 40℃. A mixture of perchlorate (Na) buffer pH 2.5 and acetonitrile (50:50, v/v) was used as mobile phase. […] Flow rate and injection volume were 1.2 mL/min and 10 μL, respectively.
Sodium taurocholate and lecithin concentration in FaSSIF-V2 are 3 mM and 0.2 mM, respectively, and those in FeSSIF-V2 are 10 mM and 2 mM, respectively. […] The formulation was considered able to exist in the small intestine for 4 h after administration. Initial intestinal fluid volume in both prandial states was set to 100 mL [31].

Data set [6] can be described thus: In vitro dissolution test of tablets in biorelevant media (USP apparatus II paddle). The class given is physicochemical. To be noted: for Dissolution in FaSSIF-V2: tablet, 500 mL, paddle 50 rpm, up to 60 min. The method, then: as §1
For in vitro dissolution tests, a USP apparatus II paddle dissolution tester (NTR-6400AC, Toyama Sangyo Co., Ltd., Osaka, Japan) was used. The media volume of FaSSGF and FaSSIF-V2 was 300 mL and 500 mL, respectively, and temperature in the dissolution vessel was maintained at 37℃ ± 0.5℃. […] Paddle rotation speed during the dissolution test was maintained at 50 rpm for up to 60 min. The samples were filtered through PVDF 0.45 µm filters (Whatman, GD/X, 13 mm, Cytiva, Chicago, IL, USA) immediately after withdrawal, and filtrates were recovered after the first 2 mL was discarded. […] All dissolution tests were conducted in triplicate.
When the tablets […] during the infinity spin in the dissolution test, separate solubility measurements were performed, as described in the next paragraph.
TSKgel ODS-100Z 5 µm (4.6 mm × 15 cm, Tosoh Corporation, Tokyo, Japan) was used as analytical column for both drugs. Column temperature during analysis was set to 40℃. A mixture of perchlorate (Na) buffer pH 2.5 and acetonitrile (50:50, v/v) was used as mobile phase. […] Flow rate and injection volume were 1.2 mL/min and 10 μL, respectively. […]

The conditions of data set [7]: cited from earlier work. This is another data set of the same source.
Setting [8] is: FaSSIF-V2, drug substance powder, 37℃, shaken 5 h, pH 6.5, read-out: Solubility in FaSSIF-V2.
Where [9] appears, read: FeSSIF-V2, 37 °C, fessif, thermodynamic from solid, drug substance powder, 37℃, shaken 5 h, pH 5.8, read-out: Solubility in FeSSIF-V2.

Structures are written as SMILES. ≈ marks a conversion by molar mass, not a printed value. Like-named read-outs stand apart in the source and are kept apart here.

Broadly, the Papp is the rate of passage across a membrane or cell layer, normalised by area and donor concentration. As usually defined, the pKa is the pH at which an ionisable group is half protonated. As a reminder, the solubility is the concentration that dissolves in the medium under given conditions. What is called Log P is the decadic logarithm of the partition coefficient of the neutral form, usually between octanol and water. For `O=C1[C@H](CC[C@H](O)c2ccc(F)cc2)[C@@H](c2ccc(O)cc2)N1c1ccc(F)cc1` [Ezetimibe, ezetimibe], in data set [1], the Papp was 121 ×10⁻⁶ cm/s. Besides, the “Effect of concomitant food on extent of absorption” value in data set [2] is “not affected”. In addition, the “Solubility in the aqueous phase” value in data set [3] is given as “virtually insoluble”. The pKa in data set [4] is given as 9.7. The results for the solubility at 5 h in data set [5] (setting [8]) and in data set [5] (setting [9]) were 3.79 ± 0.133 µg/mL (≈ 9.26 µM) and 22.3 ± 0.203 µg/mL (≈ 54.5 µM), respectively. Also, in data set [5], the Free fraction is 0.169. Further, in data set [5], the “Solubilization by bile micelles” value is on record as “clearly shown to be solubilized by the mixed micelles”. The compound further registered a solubility at 120 min in data set [6] (FaSSIF-V2, for PK simulation, Zetia: infinity point of tablet dissolution test, Mobic: adopted from drug substance solubility test) of 4.93 µg/mL (≈ 12 µM). The “Dissolution in FaSSIF-V2” value in data set [6] is on record as “around 20%”. For the same compound, in data set [7], the “Log P” value was 4.5.

`Cc1cnc(NC(=O)C2=C(O)c3ccccc3S(=O)(=O)N2C)s1` [Meloxicam, meloxicam]: the solubility at 5 h is 172 ± 12.3 µg/mL (≈ 489 µM) in data set [5] (setting [8]); 42.7 ± 1.53 µg/mL (≈ 122 µM) in data set [5] (setting [9]); 164 µg/mL (≈ 467 µM) in data set [5] (blank FaSSIF-V2 (without surfactant), drug substance, medium without surfactant, read-out: Solubility in blank FaSSIF-V2); 32.5 µg/mL (≈ 92.5 µM) in data set [5] (blank FeSSIF-V2 (without surfactant), drug substance, medium without surfactant, read-out: Solubility in blank FeSSIF-V2). The Free fraction result in data set [5] is “Regard as 1”; in data set [5] (listed as meloxicam), 1. For the same compound, in data set [5], the “Solubilization by bile micelles” value is given as “insignificant”. For the same compound, the “Dissolution in FaSSIF-V2” value in data set [6] is given as “about 80%”. Further, the “Log P” value in data set [7] (calculated value based on apparent partition coefficient Log Papp) is on record as 3.32.

With `O=C(O)[C@H]1O[C@@H](Oc2ccc([C@@H]3[C@@H](CC[C@H](O)c4ccc(F)cc4)C(=O)N3c3ccc(F)cc3)cc2)[C@H](O)[C@@H](O)[C@@H]1O` [glucuronide], in data set [2] (humans, Zetia tablet), the “Plasma concentration of glucuronide relative to parent drug in terms of AUC” value is “about seven-fold”.
